Laboratory results as given in the NIST ThermoML archive (doi:10.1016/j.jct.2010.05.009).

How the values were obtained:
[1] = refractive index (Na D-line) (dimensionless); xn = mol fraction of the nth substance listed; details: 101 kPa, Liquid, Standard Abbe refractometry
[2] = xn = mol fraction of the nth substance listed; details: 288.15 K, 101 kPa, Liquid; for viscosity: Capillary tube (Ostwald / Ubbelohde) method; for mass density: Vibrating tube method

CCC(C)(C)O [2-methylbutan-2-ol] + C1CCOC1
refractive index, [1]
Details | 288.15 K | 298.15 K | 308.15 K
x1 = 0.1028 | 1.4076 | 1.4027 | 1.3979
x1 = 0.1791 | 1.4069 | 1.4022 | 1.3974
x1 = 0.2676 | 1.4065 | 1.4018 | 1.3972
x1 = 0.3601 | 1.4064 | 1.4018 | 1.3971
x1 = 0.45 | 1.4066 | 1.402 | 1.3972
x1 = 0.5402 | 1.4068 | 1.4022 | 1.3974
x1 = 0.6295 | 1.407 | 1.4023 | 1.3976
x1 = 0.7058 | 1.4071 | 1.4024 | 1.3977
x1 = 0.8097 | 1.4071 | 1.4024 | 1.3977
x1 = 0.8903 | 1.4069 | 1.4022 | 1.3975
x1 = 0.9629 | 1.4065 | 1.4018 | 1.3972
x1 = 1 | 1.4062 | 1.4015 | 1.3968

[2]
Details | mass density [kg/m3] | viscosity [mPa·s]
x1 = 0.1028 | 881.2 | 0.7142
x1 = 0.1791 | 873.29 | 0.895
x1 = 0.2676 | 865.01 | 1.13
x1 = 0.3601 | 857.15 | 1.365
x1 = 0.45 | 850.2 | 1.63
x1 = 0.5402 | 843.79 | 1.968
x1 = 0.6295 | – | 2.399
x1 = 0.7058 | – | 2.849
x1 = 0.8097 | – | 3.623
x1 = 0.8903 | – | 4.381
x1 = 0.9629 | – | 5.245
x1 = 1 | – | 5.867
